Results on one substance are retold here after patent publication US8574578B2, “Antibodies against PDGFRα to inhibit tumor growth” (ImClone LLC, priority 2006, dated 2013).

Data set [1] concerns Akt phosphorylation in PC3-ML cells. Description: Akt phosphorylation in PC3-ML cells (Western blot). Format: cell-based, human. Here is the method: Bone marrow samples from normal male donors (ages 18-45) were supplied by Cambrex (Poietics™ Donor Program). Samples were centrifuged at 1,500 rpm in order to separate the soluble and cellular phases. The supernatant was filtered using 0.8 μm and 0.22 μm filters in succession. 50 μl of bone marrow aspirate was administered to cells in 1 ml of medium (1:20 final dilution).
For experiments performed in the presence of serum, cells were cultured in DMEM supplemented with 10% FBS and 50 μg/ml gentamycin for 24 hours prior to exposure to bone marrow. For experiments in the absence of serum (starved cells), cells were washed twice with PBS, the growth medium was replaced with serum-free DMEM, and the cells were incubated for 4 hours prior to exposure to bone marrow preparations. When used, AG-1296, a specific inhibitor of PDGF receptors (Rice et al., 1999, Amer. J. Path. 155, 213-21) was added to cultures 30 min. prior to exposure to bone marrowaspirate. IMC-3G3 antibodies were administered as described at pre-treatment times as stated below.
On the technique in general: A western blot detects proteins with antibodies after separation by electrophoresis.

For data set [2], the system named is SKLMS-1 cells. The data set can be described thus: PDGF-AA-induced Akt and MAPK phosphorylation in SKLMS-1 cells. Format: cell-based, human. Conditions: PDGF-AA stimulation of SKLMS-1 cells. The method, then: (§1) Cells were seeded in six-well Falcon tissue culture plates (250,000 cells per well) and allowed to grow overnight. Wells were then rinsed and incubated in serum-free medium. After an overnight incubation to render cells quiescent, the cells were treated with antibodies for 30 minutes at 37° C. followed by addition of PDGF-AA or PDGF-BB and incubation for an additional 10 minutes at 37° C. Cells were then detached and lysed in 200 μL lysis buffer (50 mmol/L Tris-HCl (pH 8.0), 1% Triton X-100, 150 mmol/L NaCl, 1 mmol/L EDTA, 0.1% SDS, 1 mmol/L sodium orthovanadate, and protease inhibitors (Complete Mini, Roche, Mannheim, Germany)). Cell lysates were analyzed by SDS-PAGE and Western blotting using enhanced chemiluminescence reagents and Hyperfilm (Amersham Biosciences).
(§2) Human tumor cell lines expressing PDGFRα were tested to determine the affects of the human anti-PDGFRα antibody on malignant growth in in vitro and in vivo systems. Two such tumor cell lines that express PDGFRα as determined by flow cytometry are SKLMS-1 (leiomyosarcoma) and U118 (glioblastoma). These cell lines also respond to ligand in mitogenic assays and form tumors in mice. SKLMS-1 has the potential for not only paracrine but also autocrine stimulation.

Data set [3] has as its system U118 cells. Description: PDGF-AA-induced downstream-effector phosphorylation in U118 cells. The data set is classed as cell-based, human. Here is the method:
as §1, §2

Data set [4] has as its system U118 cells. Description: PDGF-stimulated [3H]thymidine incorporation in U118 cells. The conditions noted are these: at 66 nmol/L. Format: cell-based, human. Here is the method: (§3) The ant-PDGFRα monoclonal antibody was tested for its ability to block PDGFAA-induced mitogenesis of PAE Rα cells. Cells were seeded in 96-well tissue culture plates (1×10^4 cells per well) and grown overnight in 100 μL medium per well. The wells were then rinsed with serum-free medium and cells were serum starved overnight with 75 μL serum-free medium added to each well. IgG was added (25 μL/well) and the plates were incubated for 30 minutes at 37° C. PDGF-AA or PDGF-BB (25 μL/well) was then added and plates were incubated for 18 to 20 hours at 37° C. Plates were incubated for an additional 4 hours after each well received 0.25 μCi [^3H]thymidine (25 μL/well). Antibody, PDGF, and [^3H]thymidine were all diluted in serum-free medium. Cells were then washed with PBS plus 1% bovine serum albumin and detached by treatment with trypsin (100 μL/well). […] After processing the filter, DNA incorporated radioactivity was determined on a scintillation counter (Wallac Microbeta, model 1450).
(§4) Human tumor cell lines expressing PDGFRα were tested to determine the affects of the human anti-PDGFRα antibody on malignant growth in in vitro and in vivo systems. Two such tumor cell lines that express PDGFRα as determined by flow cytometry are SKLMS-1 (leiomyosarcoma) and U118 (glioblastoma). […]
(In general: Dividing cells build labelled thymidine or BrdU into new DNA.)

In data set [5] the test system is SKLMS-1 cells. The data set can be described thus: PDGF-stimulated [3H]thymidine incorporation in SKLMS-1 cells. The data set is classed as cell-based, human. Here is the method: as §3, §4
In data set [6] the test system is glioblastoma (U118) xenograft. Description: U118 glioblastoma s.c. xenograft growth. Format: in vivo, athymic nude mice. The text has this:
(§5) S.c. tumor xenografts were established by injecting 10×10^6 SKLMS-1 or U118 cells mixed in Matrigel (Collaborative Research Biochemicals, Bedford, Mass.) into female athymic nude mice (Crl:NU/NU-nuBR, Charles River Laboratories, Wilmington, Mass.). Tumors were allowed to reach a mean tumor volume (π/6×longest length×perpendicular width^2) of about 400 mm^3. The mice were randomized into five groups (n=12) and treated by i.p. injection twice weekly for the duration of the study. Group 1 mice were treated with vehicle control (0.9% NaCl, USP for Irrigation, B/Braun). Groups 2 to 4 mice were treated with 6, 20, and 60 mg/kg of the instant anti-PDGFRα antibody. Group 5 mice were treated with 60 mg/kg human IgG (Sigma). Groups treated with 6, 20, or 60 mg/kg anti-PDGFRα antibody or human IgG were given 21.4, 71.4, and 214 mg/kg loading doses, respectively. The loading doses were calculated to achieve a steady state plasma concentration from the first dose (elimination half-life, 7 days) using a dosing regimen of twice weekly. Tumor volumes were evaluated twice weekly and tumor growth in the treatment groups was compared with a repeated measures ANOVA.
(§6) Resected tumors were fixed in QDL fixative at 4° C. for 24 hours. After paraffin embedding and sectioning at 4 μm, formalin-fixed sections were stained with Mayer's H&E (Richard Allen, Kalamazoo, Mich.).

Data set [7] deals with leiomyosarcoma (SKLMS-1) xenograft. Description: SKLMS-1 leiomyosarcoma s.c. xenograft growth. Format: in vivo, athymic nude mice.
Source text: as §5, §6

The nature of data set [8]: Elimination half-life used for loading dose calculation. The arrangement: species or system mice. The conditions noted are these: mouse, in vivo.
Source text: as §5

In data set [9] the target is T1, PDGFRα (Homo sapiens, UniProt P16234). The data set can be described thus: Ligand-induced PDGFRα tyrosine phosphorylation in PAE Rα cells. On the set-up: expressed in transfected cells; host or cells: porcine aortic endothelial cells (PAE Rα). The data set is classed as cell-based, porcine aortic endothelial cells stably expressing PDGFRα. Here is the method: as §1

Data set [10] has as its target T1, PDGFRα. Description: PDGFRα phosphotyrosine level in U118 tumors in vivo. On the set-up: Two such tumor cell lines that express PDGFRα as determined by flow cytometry are SKLMS-1 (leiomyosarcoma) and U118 (glioblastoma); endogenous in cells; host or cells: U118 human glioblastoma cells grown as s.c. xenograft tumors in athymic nude mice; species or system mice with U118 tumors. Conditions: 214 mg/kg loading dose, 60 mg/kg 72 hours later; harvested at 168 hours; relative to human IgG control. Here is the method: The level of receptor phosphotyrosine in U118 tumors was evaluated one week after treatment with anti-PDGFRα antibody or human IgGt. Mice with established U118 tumors (500 mm^3) were treated with a 214 mg/kg loading dose followed 72 hours later by a 60 mg/kg maintenance dose of antibody. Tumors were harvested from mice one week (168 hours) after the first antibody injection (at a time before tumor regression is observed on average; see FIG. 18A) and homogenized in phosphorylation assay lysis buffer (see above). The lysates were centrifuged twice at 14,000 rpm and the protein concentration for the collected supernatant was determined (Bio-Rad protein assay, Bio-Rad, Hercules, Calif.). Lysate (4 mg) from each sample was immunoprecipitation using anti-PDGFRα antibody. Immunoprecipitated human PDGFRα was then immunoblotted with either an anti-PDGFR or anti-phosphotyrosine antibody.

T1 sequence (P16234 24-1089): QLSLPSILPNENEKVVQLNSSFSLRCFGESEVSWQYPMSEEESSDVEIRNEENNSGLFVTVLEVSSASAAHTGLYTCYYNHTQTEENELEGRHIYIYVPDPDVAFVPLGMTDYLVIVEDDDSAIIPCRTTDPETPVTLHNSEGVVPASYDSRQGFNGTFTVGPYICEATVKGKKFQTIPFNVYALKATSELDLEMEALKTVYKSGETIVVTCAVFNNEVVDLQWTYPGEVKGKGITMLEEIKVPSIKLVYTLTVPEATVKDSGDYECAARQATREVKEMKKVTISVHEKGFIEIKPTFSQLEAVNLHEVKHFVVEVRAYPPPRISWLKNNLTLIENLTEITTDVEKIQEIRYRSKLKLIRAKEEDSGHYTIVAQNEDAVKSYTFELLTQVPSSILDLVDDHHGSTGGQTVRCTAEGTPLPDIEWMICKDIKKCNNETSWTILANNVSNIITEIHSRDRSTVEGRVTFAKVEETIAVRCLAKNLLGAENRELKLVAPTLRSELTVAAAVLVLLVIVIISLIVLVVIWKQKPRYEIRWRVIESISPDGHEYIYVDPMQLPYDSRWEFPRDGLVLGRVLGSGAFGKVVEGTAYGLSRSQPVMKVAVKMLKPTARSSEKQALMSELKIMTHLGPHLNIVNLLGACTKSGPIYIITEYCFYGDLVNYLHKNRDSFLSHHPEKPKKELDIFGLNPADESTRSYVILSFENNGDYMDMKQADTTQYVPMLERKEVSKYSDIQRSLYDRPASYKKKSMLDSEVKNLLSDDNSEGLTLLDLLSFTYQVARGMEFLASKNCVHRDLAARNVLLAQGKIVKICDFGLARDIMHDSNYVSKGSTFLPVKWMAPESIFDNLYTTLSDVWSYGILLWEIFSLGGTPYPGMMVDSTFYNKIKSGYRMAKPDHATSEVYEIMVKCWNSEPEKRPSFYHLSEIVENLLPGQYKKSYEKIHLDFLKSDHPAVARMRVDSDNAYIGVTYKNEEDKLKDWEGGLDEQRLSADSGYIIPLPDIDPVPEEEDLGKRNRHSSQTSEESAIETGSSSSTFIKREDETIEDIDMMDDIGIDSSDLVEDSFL

Take “IMC-3G3: human anti-PDGFRα monoclonal antibody; heavy chain variable region SEQ ID NO:8, light chain variable region SEQ ID NO:16”: the “effect on PDGF-BB stimulated Akt phosphorylation” value in [1] (20 μg/ml, pre-incubation 30 minutes, 30 ng/ml PDGF-BB) is given as “neutralized”. Moreover, in [1] (30-minute incubation time), the “inhibition of bone marrow induced Akt phosphorylation” value is “about 40%”. In addition, the “inhibitory effect on Akt phosphorylation, 120-minute vs 30-minute preincubation” value in [1] (bone marrow induced) is “significantly more effective”. In addition, the “inhibition of Akt phosphorylation” value in the data set on SKLMS-1 cells [2] stood at 100%. Further, the “inhibition of MAPKs phosphorylation” value with SKLMS-1 cells [2] is on record as “about 80%”. In addition, the “inhibition of phosphorylation in U118 cells” value in the data set on U118 cells [3] is “effective inhibitor of phosphorylation”. Further, the “inhibition of PDGF-BB-stimulated mitogenic response” value with U118 cells [4] turned out to be 40%. Besides, the PDGF-BB-stimulated mitogenic response result with SKLMS-1 cells [5] is “inhibited”. The tumor regression is 4 of 12 in data set [6] (6 mg/kg), 5 of 11 in data set [6] (20 mg/kg) and 10 of 12 in data set [6] (60 mg/kg). Also, the “% T/C at end of study” value in data set [6] (6 mg/kg i.p. twice weekly) is on record as 67%; in data set [6] (20 mg/kg i.p. twice weekly), 63%; in [6] (60 mg/kg i.p. twice weekly), 35%. Further, the “histologic examination of xenografts” value is “fewer viable tumor cells” in data set [6] (60 mg/kg, compared with saline-control group); “reduction in the amount of viable tumor cells and cellular packing” in data set [7] (day 25, compared with saline-control group). Further, the “final % TIC” value is reported as 66% in data set [7] (6 mg/kg i.p. twice weekly), 57% in data set [7] (20 mg/kg i.p. twice weekly) and 31% in [7] (60 mg/kg i.p. twice weekly). For the same substance, in data set [7] (6, 20 and 60 mg/kg), the tumor regressions entry is on record as “no tumor regressions”. For the same substance, the elimination half-life in [8] was 170 h. In addition, the PDGF-BB-induced receptor phosphorylation result with PDGFRα [9] is reported as “near background levels”. Moreover, the IC50 with PDGFRα [9] (read-out: concentration for 50% inhibition of PDGFRα phosphorylation) was 250 pM. In addition, the “level of PDGFRα phosphotyrosine in U118 tumors” value with PDGFRα [10] is on record as “reduction in the level of PDGFRα phosphotyrosine”.
